Consider 30 compounds from patent US8691818B2, “Cyclic triazo and diazo sodium channel blockers” (University Of Greenwich, priority 2008, dated 2014).

The term inhibition denotes the drop in the measured response relative to a control, in per cent. What is called IC50 is the concentration that gives 50% inhibition. A lower IC50 goes with inhibition by little substance.

Experiment [1] has as its target T1, DiHydroFolate Reductase (DHFR) (Rattus norvegicus, UniProt Q920D2).
T1 construct: from tissue; host or cells: rat liver homogenate supernatant
T1 sequence (Q920D2 1-187): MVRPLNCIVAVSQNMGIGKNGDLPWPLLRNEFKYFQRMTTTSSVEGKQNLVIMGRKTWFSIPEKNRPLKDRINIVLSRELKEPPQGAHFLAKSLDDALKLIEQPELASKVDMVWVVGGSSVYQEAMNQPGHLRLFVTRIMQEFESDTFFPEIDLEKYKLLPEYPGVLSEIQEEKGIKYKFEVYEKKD
The experiment in a line: Inhibition of binding of [3H]methotrexate to rat liver homogenate supernatant. To be noted: for inhibition at 125 µM: read-out: [3H]mtx binding (% inhibition @ 125 μM); for inhibition at 99 µM: read-out: [3H]mtx binding % inhibition (* 99 μM, *** uses fresh batch of supernatant), 99 μM, fresh batch of supernatant. As to the method: All steps were carried out at 4° (or on ice). Freshly dissected rat liver was dissected into 0.25M ice-cold Sucrose and subsequently homogenised (U-turrax) in 50 mM pH 6.0 phosphate buffer (10 ml/g tissue) containing 15 mM Dithiothreitol. The resulting homogenate was centrifuged@47,500×g for 20 min and supernatant (filtered through cotton wool to remove fatty lumps) stored @ −80° before use (Rothenberg et al).
Inhibition of the binding of [^3H]methotrexate to rat liver homogenate supernatant fractions were carried out essentially as described by Arons et al, 1975.
(§1) Data are presented as mean±sem of number of experiments indicated in brackets.

The subject of experiment [2] is sodium channel. Description: [14C]guanidine flux: veratrine-evoked uptake of [14C]guanidine into rat forebrain synaptosomes (primary sodium channel assay). The format is biochemical. Particulars: 30° for 2½ min. Here is the method:
The screening strategy is designed to select compounds with appropriate sodium channel blocking activity and low side effect liability. To this end all compounds are processed through the primary sodium channel assay (veratrine-evoked uptake of [^14C]guanidine into rat forebrain synaptosomes) and IC50 values computed from generated concentration-effect curves.
Experiments were performed using forebrain (whole brain less cerebellum/medulla) from Male Wistar rats weighing 175-250 g. All efforts were made to reduce the number of animals used and all experiments were carried out in accordance with the UK Animals (Scientific Procedures) Act, 1986 and the European Community Council Directive of 24 Nov. 1986 (86/609/EEC). Following killing of animals by stunning and decapitation, the forebrain (whole brain less cerebellum/medulla) was rapidly dissected and transferred to a weighed tube containing ice-cold 0.25M sucrose.
Synaptosomes (heavy and light mitochondrial fraction containing synaptosomes) were prepared by transferring the forebrain (of known wet weight) to a glass Potter vessel to which 9 volumes ice-cold 0.25M sucrose had been added and homogenising, using a teflon pestle, by 8 ‘up and down strokes’ of a Braun Potter S motor driven homogeniser set to 900 rpm. The resulting homogenate was centrifuged at 1036×g at 4° for 10 min and the supernatant collected. The remaining pellet was resuspended, as above, in fresh ice-cold 0.25M sucrose and the centrifugation step repeated. The supernatant fractions were pooled and centrifuged at 40,000×g (average) at 4° for 15 min and the resulting pellet resuspended in the appropriate assay buffer at a concentration of 20-25 mg wet weight per ml appropriate assay buffer.
Both assays were carried out using 14 ml polypropylene test tubes to which a range of concentrations of the compounds under test were added.
The [^14C] guanidinine flux assay was measured using the method of Pauwels P J et al (1986) but carried out@30° for 2½ min.
as §1

Counter-ions that a name gives are not always drawn. Where only a bound is given, the exact number is not on record here.

In the case of `Nc1nnc(-c2cccc(Cl)n2)c(N)n1` [CEN-166, 3,5-Diamino-6-[2-(6-chloropyidyl)]-1,2,4-triazine], the inhibition at 125 µM in experiment [1] was found to be 88%. This compound had an IC50 in experiment [2] of 1180 µM.
In the case of `Nc1nnc(-c2cnc(Cl)c(Cl)c2)c(N)n1` [CEN-168, 3,5-Diamino-6-[3-(5,6-dichloropyidyl)]-1,2,4-triazine], the inhibition at 125 µM in experiment [1] was determined as 95%. In experiment [2], this compound gave an IC50 of 1000 µM.
On to `C/C(=C\c1ccccc1)c1nnc(N)nc1N` [CEN-112, 3,5-Diamino-6-[E-2-(3-phenyl)propenyl]-1,2,4-triazine], for which the inhibition at 125 µM in experiment [1] is 84%. The compound further registered an IC50 in experiment [2] of 1000 µM.
For `Nc1cnc(-c2cccc3c2OC(F)(F)O3)c(N)n1` [CEN-89, 2,6-Diamino-3-(2,2-difluorobenzodioxol-4-yl)pyrazine] the same measures were 101% and 724 µM.
For `CCCC(CCC)c1nnc(N)nc1N` [CEN-170, 3,5-Diamino-6-(1-propylbutyl)-1,2,4-triazine tosylate] the same measures were 29% and 263 µM.
For `Nc1nnc(-c2ccc(Cl)nc2)c(N)n1` [CEN-191, 3,5-Diamino-6-[3-(6-chloro-pyridyl)]-1,2,4-triazine] the same measures were 31% and 1950 µM.
With `C[n+]1cc(N)nc(N)c1-c1cc(Cl)cc(Cl)c1Cl` [CEN-90], the inhibition at 125 µM in experiment [1] is 53%. This compound also displayed an IC50 in experiment [2] of 97.7 µM.
For `Nc1nnc(-c2ccc3ccccc3n2)c(N)n1` [CEN-173, 3,5-Diamino-6-(2-quinolyl)-1,2,4-triazine], the inhibition at 125 µM in experiment [1] worked out at 34%. Besides, the IC50 in experiment [2] came to 159 µM.
Regarding `Cn1nc(C2(c3ccc(Cl)cc3)CCCC2)c(N)nc1=N` [CEN-150, 5(3)-Amino-6-{1-[1-(4-chlorophenyl)]cyclopentyl}-2,3(2,5)-dihydro-3(5)-imino-2-methyl-1,2,4-triazine methanesulfonate], the inhibition at 125 µM in experiment [1] came to 27%. Besides, the IC50 in experiment [2] stood at 16.2 µM.
For `Nc1nnc(-c2cc3ccccc3oc2=O)c(N)n1` [CEN-133] the same measures were 17% and above 2000 µM.
As to `Cn1nc(-c2sc(Cl)c(Cl)c2Cl)c(N)nc1=N` [CEN-194, 5(3)-Amino-6-{2-(3,4,5-trichloro)thienyl}-2,3(2,5)-dihydro-3(5)-imino-2-methyl-1,2,4-triazine methanesulfonate], in experiment [1], the inhibition at 99 µM was -6%. In addition, in experiment [2], the concentration for half-maximal inhibition (IC50) was 9 µM.
In the case of `Nc1nnc(-c2cccc(-c3nnc(N)nc3N)c2)c(N)n1` [CEN-186], in experiment [1], the inhibition at 125 µM was 83%. Further, the IC50 in experiment [2] was above 2000 µM.
For `CCn1nc(-c2cc(OC)c(OC)c(OC)c2)c(N)nc1=N` [CEN-119, 5(3)-Amino-6-(3,4,5-trimethoxyphenyl)-2,3(2,5)-dihydro-3(5)-imino-2-ethyl-1,2,4-triazine methanesulfonate] the same measures were 52% and 1950 µM.
Consider `Nc1nnc(-c2ccco2)c(-c2ccco2)n1` [CEN-196, 3-Amino-5,6-bis(2-furyl)-1,2,4-triazine], for which the inhibition at 99 µM in experiment [1] was found to be 41%. The IC50 in experiment [2] was determined as 912 µM.
Take `Nc1nnc(-c2ccc(F)c(Oc3ccccc3)c2)c(N)n1` [CEN-184, 3,5-Diamino-6-(4-fluoro-3-phenoxylphenyl)-1,2,4-triazine tosylate]: the inhibition at 125 µM in experiment [1] was 104%. This compound showed an IC50 in experiment [2] of 34 µM.
With `CC(C)OCCn1nc(-c2cccc(Cl)c2Cl)c(N)nc1=N` [CEN-91, 5(3)-Amino-6-(2,3-dichlorophenyl)-2,3(2,5)-dihydro-3(5)-imino-2-(2-isopropoxy)ethyl-1,2,4-triazine], the inhibition at 125 µM in experiment [1] was determined as 94%. The compound also registered an IC50 in experiment [2] of 372 µM.
Turning to `CCn1nc(-c2cccc(-c3ccccc3)c2)c(N)nc1=N` [CEN-162, 5(3)-Amino-6-(3-biphenyl)-2,3(2,5)-dihydro-3(5)-imino-2-ethyl-1,2,4-triazine methanesulfonate], the inhibition at 125 µM in experiment [1] worked out at 57%. The compound further had an IC50 in experiment [2] of 12 µM.
For `Nc1nnc(-c2cccnc2Oc2ccccc2)c(N)n1` [CEN-167, 3,5-Diamino-6-[3-(2-phenoxypyidyl)]-1,2,4-triazine] the same measures were -2% and above 2000 µM.
For `Cn1nc(-c2cc(Br)c(Br)o2)c(N)nc1=N` [CEN-135, 5(3)-Amino-6-[2-(4,5-dibromofuryl)]-2,3(2,5)-dihydro-3(5)-imino-2-methyl-1,2,4-triazine methanesulfonate] the same measures were 89% and 43.7 µM.
Regarding `Cn1cc(-c2cccc(Cl)c2Cl)c(N)nc1=N` [CEN-42, 4(2)-Amino-5-(2,3-dichlorophenyl)-2,4(2,5)-dihydro-2(4)-imino-1-methyl pyrimidine], the “[3H]mtx binding (% inhibition @ 125 μM)” value in experiment [1] (listed as 42, 125 µM) worked out at 32%. Further, in experiment [2] (listed as 42), it took 617 µM to reach half-maximal inhibition (IC50).
For `Cn1nc(-c2ccc(Oc3ccccc3)cc2)c(N)nc1=N` [CEN-102, 5(3)-Amino-6-(4-phenoxyphenyl)-2,3(2,5)-dihydro-3(5)-imino-2-methyl-1,2,4-triazine methanesulfonate], in experiment [1], the inhibition at 125 µM came out at 25%. This compound also gave an IC50 in experiment [2] of 58.9 µM.
For `Nc1nnc(-c2cc(F)c(Cl)nc2Cl)c(N)n1` [CEN-190, 3,5-Diamino-6-[3-(2,6-dichloro-5-fluoropyidyl)]-1,2,4-triazine] the same measures were 6% and 813 µM.
As to `Cn1cc(-c2cccc(Cl)c2Cl)c(N)nc1=N` [CEN-43, 4(2)-Amino-5-(2,3-dichlorophenyl)-2,4(2,5)-dihydro-2(4)-imino-1-methylpyrimidine], the “[3H]mtx binding (% inhibition @ 125 μM)” value in experiment [1] (listed as 43, 125 µM) is reported as 20%. The same compound showed an IC50 in experiment [2] (listed as 43) of 631 µM.
For the compound `COc1ccc2c(OC)cccc2c1-c1nnc(N)nc1N` [CEN-158], in experiment [1] (listed as 158, 125 µM), the “[3H]mtx binding (% inhibition @ 125 μM)” value was −1%. In addition, the IC50 in experiment [2] (listed as 158) was above 1000 µM.
For the compound `Nc1nnc(-c2cccc(C(F)(F)F)c2Cl)c(N)n1` [CEN-176, 3,5-Diamino-6-(2-chloro-3-trifluoromethylphenyl)-1,2,4-triazine], in experiment [1], the inhibition at 125 µM amounted to 55%. The compound also came in with an IC50 in experiment [2] of 309 µM.
Take `Cn1nc(C(C)(c2ccccc2)c2ccccc2)c(N)nc1=N` [CEN-149, 5(3)-Amino-6-(1,1-diphenylethyl)-2,3(2,5)-dihydro-3(5)-imino-2-methyl-1,2,4-triazine methanesulfonate]: the inhibition at 125 µM in experiment [1] amounted to 4%. 23.4 µM corresponded to half-maximal inhibition in experiment [2] (IC50).
On to `Nc1nnc(-c2cc(C(F)(F)F)cc(C(F)(F)F)c2)c(N)n1` [CEN-175, 3,5-Diamino-6-[3,5 (bis-trifluoromethyl)phenyl]-1,2,4-triazine], for which, in experiment [1] (listed as 175, 125 µM), the “[3H]mtx binding (% inhibition @ 125 μM)” value is listed as −4%. Moreover, in experiment [2] (listed as 175), the IC50 was above 2000 µM.
For `Cn1nc(-c2ccc(Oc3ccc(-c4nn(C)c(=N)nc4N)cc3)cc2)c(N)nc1=N` [CEN-116], in experiment [1], the inhibition at 125 µM came out at 70%. The IC50 in experiment [2] worked out at 955 µM.
For the compound `Nc1nnc(-c2nc(Cl)ccc2Cl)c(N)n1` [CEN-188, 3,5-Diamino-6-[2-(3,6-dichloropyidyl)]-1,2,4-triazine], in experiment [1], the inhibition at 125 µM is 76%. The same compound registered an IC50 in experiment [2] of 2570 µM.
On to `COc1cc(-c2nn(C)c(=N)nc2N)cc(OC)c1OC` [CEN-101, 5(3)-Amino-6-(3,4,5-trimethoxyphenyl)-2,3(2,5)-dihydro-3(5)-imino-2-methyl-1,2,4-triazine methanesulfonate], for which the inhibition at 125 µM in experiment [1] stood at 65%. In experiment [2], this compound came in with a half-inhibitory concentration (IC50) above 1000 µM.
